Laboratory results taken from patent publication US8680100B2, “Sulfonylhydrazide compounds for treating proliferative disorders” (Synta Pharmaceuticals Corp., priority 2008, dated 2014).

Tested on: HSP70
Assay: Hsp70 Activity Essay (HSP70 ELISA on lysates of MDA435 cells)
Format: cell-based
Conditions: concentration that increases HSP70 to 50% of maximum increase by N′1,N′3-dimethyl-N′1,N′3-di(phenylcarbonothioyl)malonohydrazide
Procedure: Each well was plated with MDA435 cells using DMEM 10% FBS Phenol-red free medium 2.5 k/well and incubated in a 37° C./5% CO2 incubator for a minimum of 6 hours to obtain good cell adherence.
Dilutions of each test compound were prepared in DMSO and DMEM 10% FBS Phenol-red free medium. The final concentration in each well was 1250 nM, 125 nM, 12.5 nM or 1.25 nM of test compound and 0.25% DMSO. 0.25% DMSO was used as a negative control. Lysis buffer (any lysis buffer suitable for use in the Assay Designs kit, e.g., such as that described in the kit instructions) was then added (amount used is one quarter of the volume already present in each plate) and the mixtures were then shaken for 10 minutes.
150 μL of “Can Get Signal” Immunoreaction Enhancer Solution (Solution 1 for primary antibody, TOYOBO, Catalogue No. NKB-101) were added to each of a series of ELISA plates. The ELISA plates were obtained from the HSP70 ELISA Kit (catalogue number EKS-700B) purchased from Assay Designs (Ann Arbor, Mich.). After the cells were lysed, 50 μL of lysate were taken from each well and added to an ELISA plate, resulting in a 4 fold dilution of the lysate (50 μL of lysate and 150 μL of Can Get Signal solution). The plates were covered with adhesive tape and incubated overnight at 4° C.;
In the morning, the liquid was aspirated from all wells and 400 μL of Washing Buffer made from 20× concentrate provided in the ELISA Kit and distilled water were added and then removed by aspiration. The addition of Washing Buffer and aspiration was repeated four times. After the fourth wash, the plate were inverted to a paper towel and carefully patted dry. 100 μL of HSP70 antibody provided in ELISA Kit were added to each well. Each well was covered with adhesive tape and incubated for one hour at room temperature. Washing Buffer was then added followed by removal with aspiration. The addition of Washing Buffer and aspiration was repeated four times, after which the plates were inverted and patted dry. 100 μL of HSP70 conjugate (provided in the ELISA Kit) were added to the wells. Each well was then covered with adhesive tape and incubated for one hour at room temperature. Washing Buffer was then added followed by removal with aspiration. The addition of Washing Buffer and aspiration was repeated four times, after which the plates were inverted and patted dry.
100 μL of the TMB Substrate (obtained from the ELISA Kit) were added to the wells (color development was visible in 1 minute). The wells were incubated until saturated color development (usually 5-15 minutes). Stop Solution 2 (provided in the ELISA Kit) was added in the same order TMB Substrate was added. The OD450 was then obtained using a plate reader. The EC50 for the compounds was calculated using N′^1,N′^3-dimethyl-N′^1,N′^3-di(phenylcarbonothioyl)malonohydrazide on the same plate as a control (concentration that increases HSP70 to 50% of maximum increase by N′^1,N′^3-dimethyl-N′^1,N′^3-di(phenylcarbonothioyl)malonohydrazide). The EC50 for each of the compounds tested is shown in example 1.

| EC50 | SMILES |
| --- | --- |
| 144 nM | CN(NC(=O)CS(=O)(=O)NN(C)C(=S)C1CC1)C(=S)c1cccc(C(F)(F)F)n1 [Compound 84, N′-(cyclopropanecarbonothioyl)-N′-methyl-2-(2-methyl-2-(6-(trifluoromethyl)pyridine-2-carbonothioyl)hydrazinyl)-2-oxoethanesulfonohydrazide] |
| 60 nM | COCC(=S)N(C)NC(=O)CS(=O)(=O)NN(C)C(=S)c1ccccc1 [Compound 85, 2-(2-(2-methoxyethanethioyl)-2-methylhydrazinyl)-N′-methyl-2-oxo-N′-(phenylcarbonothioyl)ethane-sulfonohydrazide] |
| 21 nM | CC(=S)N(C)NC(=O)CS(=O)(=O)NN(C)C(=S)c1ccccc1 [Compound 86, 2-(2-ethanethioyl-2-methylhydrazinyl)-N′-methyl-2-oxo-N′-(phenylcarbonothioyl)ethane-sulfonohydrazide] |
| 111 nM | CN(NC(=O)C(=CN)S(=O)(=O)NN(C)C(=S)C1CC1)C(=S)C1CC1 [Compound 87, 1-amino-N′-(cyclopropanecarbonothioyl)-3-(2-(cyclopropanecarbonothioyl)-2-methyl-hydrazinyl)-N′-methyl-3-oxoprop-1-ene-2-sulfonohydrazide] |
| 209 nM | CN(C)C=C(C(=O)NN(C)C(=S)C1CC1)S(=O)(=O)NN(C)C(=S)C1CC1 [Compound 88, N′-(cyclopropanecarbonothioyl)-3-(2-(cyclopropanecarbonothioyl)-2-methylhydrazinyl)-1-(dimethylamino)-N′-methyl-3-oxoprop-1-ene-2-sulfonohydrazide] |
| 201 nM | CNC=C(C(=O)NN(C)C(=S)C1CC1)S(=O)(=O)NN(C)C(=S)C1CC1 [Compound 89, N′-(cyclopropanecarbonothioyl)-3-(2-(cyclopropanecarbonothioyl)-2-methylhydrazinyl)-N′-methyl-1-(methylamino)-3-oxoprop-1-ene-2-sulfonohydrazide] |
| 227 nM | CN(NC(=O)C(=CNC1CC1)S(=O)(=O)NN(C)C(=S)C1CC1)C(=S)C1CC1 [Compound 90, N′-(cyclopropanecarbonothioyl)-3-(2-(cyclopropanecarbonothioyl)-2-methylhydrazinyl)-1-(cyclopropylamino)-N′-methyl-3-oxoprop-1-ene-2-sulfonohydrazide] |
| 229 nM | CC(C)NC=C(C(=O)NN(C)C(=S)C1CC1)S(=O)(=O)NN(C)C(=S)C1CC1 [Compound 91, N′-(cyclopropanecarbonothioyl)-3-(2-(cyclopropanecarbonothioyl)-2-methylhydrazinyl)-1-(isopropylamino)-N′-methyl-3-oxoprop-1-ene-2-sulfonohydrazide] |

Second part, the compound before the results:

| SMILES | EC50 |
| --- | --- |
| CN(NC(=O)CS(=O)(=O)NN(C)C(=S)c1ccsc1)C(=S)c1ccccc1 [Compound 57, N′-methyl-2-(2-methyl-2-(phenylcarbonothioyl)hydrazinyl)-2-oxo-N′-(thiophene-3-carbonothioyl)ethanesulfono-hydrazide] | 77 nM |
| CN(NC(=O)CS(=O)(=O)NN(C)C(=S)c1ccccc1)C(=S)c1ccsc1 [Compound 58, N′-methyl-2-(2-methyl-2-(thiophene-3-carbonothioyl)hydrazinyl)-2-oxo-N′-(phenylcarbonothioyl)ethane-sulfonohydrazide] | 77 nM |
| CN(NC(=O)CS(=O)(=O)NN(C)C(=S)c1csc2ccccc12)C(=S)c1ccccc1 [Compound 59] | 129 nM |
| CN(NS(=O)(=O)CC(=O)NN1CCCCC1=S)C(=S)c1ccccc1 [Compound 66, 2-(2-methyl-2-(phenylcarbonothioyl)hydrazinyl-sulfonyl)-N′-(2-thioxopiperidin-1-yl)acetamide] | 48 nM |
| CCN(CC)C(=S)N(C)NS(=O)(=O)CC(=O)NN(C)C(=S)c1ccccc1 [Compound 68, N,N-diethyl-1-methyl-2-(2-(2-methyl-2-(phenylcarbonothioyl)hydrazinyl)-2-oxoethylsulfonyl)hydrazine-carbothioamide] | 63 nM |
| CCN(CC)C(=S)N(C)NC(=O)CS(=O)(=O)NN(C)C(=S)c1ccccc1 [Compound 69, N,N′-diethyl-1-methyl-2-(2-(2-methyl-2-(phenylcarbonothioyl)hydrazinyl-sulfonyl)acetyl)hydrazine-carbothioamide] | 85 nM |
| CCN(CC)C(=S)N(C)NS(=O)(=O)CC(=O)NN(C)C(=S)c1cnccn1 [Compound 70, N,N′-diethyl-1-methyl-2-(2-(2-methyl-2-(pyrazine-2-carbonothioyl)hydrazinyl)-2-oxoethylsulfonyl)hydrazine-carbothioamide] | 127 nM |
| CN(NC(=O)CS(=O)(=O)NN(C)C(=S)C1CC1)C(=S)c1cnco1 [Compound 74, N′-(cyclopropanecarbonothioyl)-N′-methyl-2-(2-methyl-2-(oxazole-5-carbonothioyl)hydrazinyl)-2-oxoethanesulfonohydrazide] | 301 nM |
| CCCCN(NS(=O)(=O)CC(=O)NN(C)C(=S)c1ccccc1)C(=S)c1ccccc1 [Compound 75, N′-butyl-2-(2-methyl-2-(phenylcarbonothioyl)hydrazinyl)-2-oxo-N′-(phenylcarbonothioyl) ethanesulfonohydrazide] | 810 nM |
| CN(NS(=O)(=O)CC(=O)NN(C)C(=S)C1CC1)C(=S)c1cncs1 [Compound 76, 2-(2-(cyclopropanecarbonothioyl)-2-methylhydrazinyl)-N′-methyl-2-oxo-N′-(thiazole-5-carbonothioyl)-ethanesulfonohydrazide] | 1180 nM |
| CN(NS(=O)(=O)CC(=O)NN(C)C(=S)C1CC1)C(=S)c1cnco1 [Compound 77, 2-(2-(cyclopropanecarbonothioyl)-2-methylhydrazinyl)-N′-methyl-N′-(oxazole-5-carbonothioyl)-2-oxoethanesulfonohydrazide] | 967 nM |
| CN(NC(=O)CS(=O)(=O)NN(C)C(=S)c1ccccc1F)C(=S)c1ccccc1 [Compound 80, N′-(2-fluorophenylcarbonothioyl)-N′-methyl-2-(2-methyl-2-(phenylcarbonothioyl)hydrazinyl)-2-oxoethanesulfonohydrazide] | 139 nM |
| CN(NS(=O)(=O)CC(=O)NN(C)C(=S)c1ccccc1C(F)(F)F)C(=S)c1ccccc1 [Compound 81, N′-methyl-2-(2-methyl-2-(2-(trifluoromethyl)phenylcarbono-thioyl)hydrazinyl)-2-oxo-N′-(phenylcarbonothioyl)ethane-sulfonohydrazide] | 354 nM |
| CN(NS(=O)(=O)CC(=O)NN(C)C(=S)c1ccccc1F)C(=S)c1ccccc1 [Compound 82, 2-(2-(2-fluorophenylcarbonothioyl)-2-methylhydrazinyl)-N′-methyl-2-oxo-N′-(phenylcarbonothioyl)ethane-sulfonohydrazide] | 173 nM |
